Literature values in patent US20250302889A1, “Ingestible Nutritive Compositions With Prebiotics, Probiotics, and Postbiotics” (First Day Life, Inc., priority 2024, published 2025).

Experiments:
[1] = 24 hours; probiotics 10^8 CFUs, diclofenac sodium 150 mg/kg, single dose
[2] = 24 hours after injection, vs carrageenan control group
[3] = 24 hours after injection, vs carrageenan control group; remark: listed apart in the source

Structure (SMILES): O=C(O)Cc1ccccc1Nc1c(Cl)cccc1Cl [diclofenac sodium]
- inhibition of edema [1]: about 34%
- motility test score [2]: scored significantly higher
- stair climbing activity (steps climbed) [3]: climbed significantly more steps
